SMILES strings stand for the structures.

For experiment [1], the target named is T1, Dipeptidyl peptidase 3 (Homo sapiens, UniProt Q9NY33).
T1 sequence (Q9NY33 whole entry): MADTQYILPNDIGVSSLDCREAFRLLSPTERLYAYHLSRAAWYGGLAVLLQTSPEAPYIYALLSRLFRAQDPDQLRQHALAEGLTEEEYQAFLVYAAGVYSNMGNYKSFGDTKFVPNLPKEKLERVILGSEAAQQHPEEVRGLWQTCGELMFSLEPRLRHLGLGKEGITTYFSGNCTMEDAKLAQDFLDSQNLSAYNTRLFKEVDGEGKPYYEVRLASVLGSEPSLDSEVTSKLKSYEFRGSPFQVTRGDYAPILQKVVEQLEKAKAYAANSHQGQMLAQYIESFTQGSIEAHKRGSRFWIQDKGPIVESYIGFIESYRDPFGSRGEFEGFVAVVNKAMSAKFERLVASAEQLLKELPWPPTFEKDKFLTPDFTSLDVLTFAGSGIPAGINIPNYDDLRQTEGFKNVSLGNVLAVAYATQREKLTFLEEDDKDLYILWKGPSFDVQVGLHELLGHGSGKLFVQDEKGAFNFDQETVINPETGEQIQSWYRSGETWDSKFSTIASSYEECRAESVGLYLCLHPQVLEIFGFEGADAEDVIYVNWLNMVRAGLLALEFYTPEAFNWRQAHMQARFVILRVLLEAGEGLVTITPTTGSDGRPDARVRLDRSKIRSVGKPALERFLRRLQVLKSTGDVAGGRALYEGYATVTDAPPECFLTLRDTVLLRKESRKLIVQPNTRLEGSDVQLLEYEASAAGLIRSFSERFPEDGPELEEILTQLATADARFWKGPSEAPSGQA
Put plainly: Enzyme Inhibition Assay. The conditions noted are these: pH 7.4; 25 °C. From the text:
The IC50 value is defined as the concentration of an inhibitor with caused 50% reduction of the enzyme activity under specific condition. The principle of these assay with synthetic 2-naphthylamide substrates is based on the absorbance at 530nm of a chromophoric complex formed by the reaction product 2-naphthylamine with Fast Blue B salt.

The target in experiment [2] is T1, Dipeptidyl peptidase 3. Put plainly: Enzyme Inhibition Assay. The conditions noted are these: pH 7.4; 25 °C. The source holds these as a separate data set.

The IC50 is the concentration at which inhibition is half-maximal. A low value points to greater potency. Take `Clc1ccccc1C1C(c2nc3ccc(C4=NCCN4)cc3[nH]2)C(c2ccccc2Cl)C1c1nc2ccc(C3=NCCN3)cc2[nH]1` (stereo not drawn) [2,4-Disubstituted-1,3-di-(5-amidino-2-benzoimidazolyl)-cyclobutane hydrochoride, 4']: the IC50 at Dipeptidyl peptidase 3 [1] is more than 1.7 µM.
On Dipeptidyl peptidase 3 [1], `c1csc(C2C(c3nc4ccc(C5=NCCN5)cc4[nH]3)C(c3cccs3)C2c2nc3ccc(C4=NCCN4)cc3[nH]2)c1` (stereo not drawn) [2,4-Disubstituted-1,3-di-(5-amidino-2-benzoimidazolyl)-cyclobutane hydrochoride, 8'] returned an IC50 of 10 µM.
Still for that read-out and setting: in the case of `N=C(N)c1ccc2[nH]c(-c3c[nH]cn3)nc2c1` [Benzimidazole derivative, 1] it was 53 µM.
Same read-out and setting: in the case of `C(=C\c1nc2ccccc2[nH]1)/c1ccccc1` [Benzimidazole derivative, 4] it was more than 100 µM; in that of `C(=Cc1nc2ccc(C3=NCCN3)cc2[nH]1)c1ccccc1` [Benzimidazole derivative, 3], 10 µM.
The same measure, in the same setting: the value for `CC(C)N=C(N)c1ccc2nc(C3C(c4ccccc4Cl)C(c4nc5ccc(C(=N)NC(C)C)cc5[nH]4)C3c3ccccc3Cl)[nH]c2c1` (stereo not drawn) [2,4-Disubstituted-1,3-di-(5-amidino-2-benzoimidazolyl)-cyclobutane hydrochoride, 6'] was 6 µM; that for `N=C(N)c1ccc2nc(C3C(c4ccccc4Cl)C(c4nc5ccc(C(=N)N)cc5[nH]4)C3c3ccccc3Cl)[nH]c2c1` (stereo not drawn) [2,4-Disubstituted-1,3-di-(5-amidino-2-benzoimidazolyl)-cyclobutane hydrochoride, 5'] was 7 µM.
For `c1coc(C2C(c3nc4ccc(C5=NCCN5)cc4[nH]3)C(c3ccco3)C2c2nc3ccc(C4=NCCN4)cc3[nH]2)c1` (stereo not drawn) [2,4-Disubstituted-1,3-di-(5-amidino-2-benzoimidazolyl)-cyclobutane hydrochoride, 7'], 8 µM corresponded to half-maximal inhibition on Dipeptidyl peptidase 3 [1] (IC50).
Still for that read-out and setting: the value for `N=C(N)c1ccc2nc(C3C(c4ccccc4)C(c4nc5ccc(C(=N)N)cc5[nH]4)C3c3ccccc3)[nH]c2c1` (stereo not drawn) [2,4-Disubstituted-1,3-di-(5-amidino-2-benzoimidazolyl)-cyclobutane hydrochoride, 2'] was 5.6 µM.
On the same count and under the same terms, the value for `CC(C)N=C(N)c1ccc2nc(C3C(c4ccccc4)C(c4nc5ccc(C(=N)NC(C)C)cc5[nH]4)C3c3ccccc3)[nH]c2c1` (stereo not drawn) [2,4-Disubstituted-1,3-di-(5-amidino-2-benzoimidazolyl)-cyclobutane hydrochoride, 3'] was more than 10 µM.
Broadly, the Kd is a measure of binding affinity in units of concentration. A high value points to a looser complex. Compound `c1ccc(C2C(c3nc4ccc(C5=NCCN5)cc4[nH]3)C(c3ccccc3)C2c2nc3ccc(C4=NCCN4)cc3[nH]2)cc1` (stereo not drawn) [2,4-Disubstituted-1,3-di-(5-amidino-2-benzoimidazolyl)-cyclobutane hydrochoride, 1'] registered an IC50 at Dipeptidyl peptidase 3 [1] of 2.8 µM. This compound also gave a Kd at Dipeptidyl peptidase 3 [2] of 0.2 µM.
`c1ncc(-c2nc3cc(C4=NCCN4)ccc3[nH]2)[nH]1` [Benzimidazole derivative, 2] displayed an IC50 at Dipeptidyl peptidase 3 [1] of 18 µM.
